The results in this text go back to patent US9487559B2, “Compositions comprising multivalent synthetic ligands of surface nucleolin and glycosaminoglycans” (ELRO PHARMA SARL, priority 2010, dated 2016).

In one assay the test system is PANC1 cells. Nature of the assay: PANC1 proliferation, gemcitabine alone or combined with N6L, Cs-C or nanoparticles, MTT assay. It is filed as cell-based, human. Conditions: gemcitabine 1 nM to 50 nM, every day for 4 days, 5% FBS. As to the method: FIG. 22. Nanoparticles, but not N6L, induce the activity of gemcitabine. Similar number of PANC1 cells was treated with increasing concentrations of gemcitabine alone or in combination with N6L, Cs-C, or nanoparticles composed by Cs-C.
Background: Tetrazolium dyes change colour on reduction, which living cells bring about.

Assay [1] relates to U87-MG (Human glioblastoma-astrocytoma) cells. Nature of the assay: Anchorage-dependent proliferation of U87-MG cells, MTT assay. It is filed as cell-based. Conditions: whatever the concentration used (0.1-1000 μg/ml).
For assay [2], the system named is PANC-1 (Human pancreatic carcinoma) cells. Briefly: Anchorage-dependent proliferation of PANC-1 cells, MTT assay. It is filed as cell-based. As to conditions: whatever the concentration used (0.1-1000 μg/ml).
The subject of assay [3] is chicken embryo chorioallantoic membrane. Nature of the assay: In vivo angiogenesis, chicken embryo chorioallantoic membrane (CAM) assay. As to conditions: heparin or CS-C applied alone on the CAM, 48 h. The method, then: FIG. 21. […] An 1 cm2 area of chicken embryo CAM, restricted by a silicon ring, was incubated with 20 μM N6L or nanoparticles composed by 20 μM N6L and […] heparin or Cs-C. 48 h later, total vessels length was quantified. We observed that N6L had no effect on the in vivo angiogenesis, in contrast to the heparin or Cs-C composed nanoparticles that inhibited the development of new blood vessels (50% and 70%, respectively). Results are mean values±SD from at least 3 independent experiments.
To analyse the effects of N6L pre-incubated with sulfated glycoaminoglycans on in vivo angiogenesis using chicken embryo chorioallantoic membrane assay.
Leghorn fertilized eggs were incubated for 4 days at 37° C. A window was then opened on the eggshell, exposing the CAM. The window was covered with sterile tape, and the eggs were returned to the incubator. On day 9 of embryo development, […] of distilled water as a control or containing either 20 μM N6L, […] or 10 μg/ml CS-C alone or 20 μM N6L pre-incubated with either 10 μg/ml heparin or 10 μg/ml CS-C inside a silicone ring to restricted the area which is 1 cm^2. […] Photographs were taken and the total length of the vessels was quantified using PC image-analysis software (Scion Corporation, USA). […]

“Also recorded” adds a separate entry of the source.

With `Nc1ccn([C@@H]2O[C@H](CO)[C@@H](O)C2(F)F)c(=O)n1` [gemcitabine], the “inhibition of PANC1 proliferation by gemcitabine alone” value with PANC1 cells was “slight inhibition; also recorded: slightly inhibited”.

Turning to chondroitin-6-sulfate [Cs-C], the “effect of GAG alone on U87-MG proliferation” value in assay [1] is reported as “no effect”. For the same compound, in assay [2], the “effect of GAG alone on PANC-1 proliferation” value was “no effect”. For the same compound, in assay [3], the “effect of GAG alone on in vivo angiogenesis” value is “no effect”.

heparin: the “effect of GAG alone on U87-MG proliferation” value in assay [1] was “no effect”. For the same compound, the “effect of GAG alone on PANC-1 proliferation” value in assay [2] is “no effect”. In addition, the “effect of GAG alone on in vivo angiogenesis” value in assay [3] was “no effect”.
